Earlier results in patent US11351151B2, “Compound having anticancer activity and preparation method and application” (3D Medicines (Beijing) Co., Ltd., priority 2016, dated 2022).

Details: liver cancer patients, phase III; cited from earlier work

CNC(=O)c1cc(Oc2ccc(NC(=O)Nc3ccc(Cl)c(C(F)(F)F)c3)cc2)ccn1 [Sorafenib]
ORR (overall response rate): 6.9% | TTP (time to progression): 4.0 months
